{"source": "patent US8716292B2", "about": "“Riminophenazines with 2-(heteroaryl)amino substituents and their anti-microbial activity” (priority 2010, dated 2014)"}
{"system": "Mycobacterium tuberculosis H37Rv strains", "test": "In vitro assay for antimicrobial susceptibility (microplate Alamar blue MIC)", "assay_type": "cell-based", "settings": "Mycobacterium tuberculosis, H37RV, 7H9, Alamar blue, inhibition ≧90%; read-out: MIC (μg/mL) against H37Rv", "units": {"MIC": "µg/mL"}}
{"smiles": "CC(C)/N=c1\\cc2n(-c3ccc(Cl)cc3)c3ccccc3nc-2cc1Nc1ncccc1C#N", "note": "[TBI-1075, 5-(4-Chlorophenyl)-3-(1-methylethyl)imino-2-(3-cyano-2-pyridyl)amino-3,5-dihydrophenazine]", "MIC": 0.016}
{"smiles": "CC(C)/N=c1\\cc2n(-c3ccc(F)c(F)c3)c3ccccc3nc-2cc1Nc1cnccn1", "note": "[TBI-1446, 5-(3,4-Difluorophenyl)-3-(1-methylethyl)imino-2-(pyrazin-2-yl)amino-3,5-dihydrophenazine]", "MIC": 0.03}
{"smiles": "COC1CCC(/N=c2\\cc3n(-c4ccc(F)c(F)c4)c4ccccc4nc-3cc2Nc2ncccn2)CC1", "note": "(centres unmarked) [TBI-1433, 5-(3,4-Difluorophenyl)-3-(4-methoxycyclohexyl)imino-2-(pyrimidin-2-yl)amino-3,5-dihydrophenazine]", "MIC": 0.086}
{"smiles": "COC1CCC(/N=c2\\cc3n(-c4ccc(F)cc4)c4ccccc4nc-3cc2Nc2ncccc2[N+](=O)[O-])CC1", "note": "(centres unmarked) [TBI-1083, 5-(4-Fluorophenyl)-3-(4-methoxycyclohexyl)imino-2-(3-nitro-2-pyridyl)amino-3,5-dihydrophenazine]", "MIC": 5.81}
{"system": "Mycobacterium tuberculosis H37Rv strains", "test": "In vitro assay for antimicrobial susceptibility (microplate Alamar blue MIC)", "assay_type": "cell-based", "settings": "Mycobacterium tuberculosis, H37RV, in vitro, Mycobacterium tuberculosis H37Rv strains; read-out: MIC (μg/mL) against H37Rv", "units": {"MIC": "µg/mL"}}
{"smiles": "COC1CCC(/N=c2\\cc3n(-c4ccc(C)cc4)c4ccccc4nc-3cc2Nc2ccc(C)nc2)CC1", "note": "(centres unmarked) [TBI-316, 5-(4-Methylphenyl)-3-(4-methoxycyclohexyl)imino-2-(6-methyl-3-pyridyl)amino-3,5-dihydrophenazine]", "MIC": 0.028}
{"smiles": "Cc1cncc(Nc2cc3nc4ccccc4n(-c4ccc(F)cc4)c-3c/c2=N\\C2CCOCC2)c1", "note": "[TBI-1028, 5-(4-Fluorophenyl)-3-(4-tetrahydropyranyl)imino-2-(5-methyl-3-pyridyl)amino-3,5-dihydrophenazine]", "MIC": 0.06}
{"smiles": "Fc1ccc(-n2c3c/c(=N\\C4CCCCC4)c(Nc4cccnc4)cc-3nc3ccccc32)cc1F", "note": "[TBI-527, 5-(3,4-Difluorophenyl)-3-cyclohexylimino-2-(3-pyridyl)amino-3,5-dihydrophenazine]", "MIC": 0.039}
{"smiles": "Cc1ccc(-n2c3c/c(=N\\C4CCOCC4)c(Nc4cncc(C)c4)cc-3nc3ccccc32)cc1", "note": "[TBI-328, 5-(4-Methylphenyl)-3-(4-tetrahydropyranyl)imino-2-(5-methyl-3-pyridyl)amino-3,5-dihydrophenazine]", "MIC": 0.037}
{"smiles": "COc1ccc(Nc2cc3nc4ccccc4n(-c4ccc(C)cc4)c-3c/c2=N\\C2CCCCC2)cn1", "note": "[TBI-357, 5-(4-Methylphenyl)-3-cyclohexylimino-2-(6-methoxy-3-pyridyl)amino-3,5-dihydrophenazine]", "MIC": 0.228}
{"smiles": "Clc1ccc(-n2c3c/c(=N\\C4CCCCC4)c(Nc4cccnc4)cc-3nc3ccccc32)c(Cl)c1", "note": "[TBI-368, 5-(2,4-Dichlorophenyl)-3-cyclohexylimino-2-(3-pyridyl)amino-3,5-dihydrophenazine]", "MIC": 0.054}
{"smiles": "COc1ncccc1Nc1cc2nc3ccc(F)cc3n(-c3ccc(OC(F)(F)F)cc3)c-2c/c1=N\\C1CCOCC1", "note": "[TBI-855]", "MIC": 0.193}
{"smiles": "COc1ncccc1Nc1cc2nc3ccccc3n(-c3ccc(C(F)(F)F)cc3)c-2c/c1=N\\C(C)C", "note": "[TBI-699, 5-(4-Trifluoromethylphenyl)-3-(1-methylethyl)imino-2-(2-methoxy-3-pyridyl)amino-3,5-dihydrophenazine]", "MIC": 0.029}
{"smiles": "COC1CCC(/N=c2\\cc3n(-c4ccc(C)cc4)c4ccccc4nc-3cc2Nc2cncc(C)c2)CC1", "note": "(centres unmarked) [TBI-330, 5-(4-Methylphenyl)-3-(4-methoxycyclohexyl)imino-2-(5-methyl-3-pyridyl)amino-3,5-dihydrophenazine]", "MIC": 0.035}
{"smiles": "COC1CCC(/N=c2\\cc3n(-c4ccc(F)cc4)c4ccccc4nc-3cc2Nc2cccnc2)CC1", "note": "(centres unmarked) [TBI-685, 5-(4-Fluorophenyl)-3-(4-methoxycyclohexyl)imino-2-(3-pyridyl)amino-3,5-dihydrophenazine]", "MIC": 0.125}
{"smiles": "Cc1ccc(-n2c3c/c(=N\\C(C)C)c(Nc4cccnc4)cc-3nc3ccccc32)cc1", "note": "[TBI-300, 5-(4-Methylphenyl)-3-(1-methylethyl)imino-2-(3-pyridyl)amino-3,5-dihydrophenazine]", "MIC": 0.03}
{"smiles": "Cc1ncccc1Nc1cc2nc3ccccc3n(-c3ccc(F)cc3)c-2c/c1=N\\C1CCC1", "note": "[TBI-1018, 5-(4-Fluorophenyl)-3-cyclobutylimino-2-(2-methyl-3-pyridyl)amino-3,5-dihydrophenazine]", "MIC": 0.028}
{"smiles": "Brc1ccc(-n2c3c/c(=N\\C4CCOCC4)c(Nc4cccnc4)cc-3nc3ccccc32)cc1", "note": "[TBI-093, 5-(4-Bromophenyl)-3-(4-tetrahydropyranyl)imino-2-(3-pyridyl)amino-3,5-dihydrophenazine]", "MIC": 0.163}
{"smiles": "COC1CCC(/N=c2\\cc3n(-c4cccc(OC(F)(F)F)c4)c4ccccc4nc-3cc2Nc2cccnc2C)CC1", "note": "(centres unmarked) [TBI-1033, 5-(3-Trifluoromethoxyphenyl)-3-(4-methoxycyclohexyl)imino-2-(2-methyl-3-pyridyl)amino-3,5-dihydrophenazine]", "MIC": 0.242}
{"smiles": "COC1CCC(/N=c2\\cc3n(-c4ccccc4)c4ccccc4nc-3cc2Nc2ccc(C)nc2)CC1", "note": "(centres unmarked) [TBI-072, 5-Phenyl-3-(4-methoxycyclohexyl)imino-2-(6-methyl-pyridyl)amino-3,5-dihydrophenazine]", "MIC": 0.091}
{"smiles": "Cc1ccc(Nc2cc3nc4ccccc4n(-c4ccc(F)cc4)c-3c/c2=N\\C2CCCCC2)cn1", "note": "[TBI-905, 5-(4-Fluorophenyl)-3-cyclohexylimino-2-(6-methyl-3-pyridyl)amino-3,5-dihydrophenazine]", "MIC": 0.057}
{"smiles": "Cc1ccc(Nc2cc3nc4ccccc4n(-c4ccc(Br)cc4)c-3c/c2=N\\C2CC2)cn1", "note": "[TBI-100, 5-(4-Bromophenyl)-3-cyclopropylimino-2-(6-methyl-3-pyridyl)amino-3,5-dihydrophenazine]", "MIC": 0.011}
{"smiles": "COc1ccc(Nc2cc3nc4ccccc4n(-c4ccc(F)cc4)c-3c/c2=N\\C2CC2)cn1", "note": "[TBI-931, 5-(4-Fluorophenyl)-3-cyclopropyimino-2-(6-methoxy-3-pyridyl)amino-3,5-dihydrophenazine]", "MIC": 0.238}
{"smiles": "CC(=O)Nc1ccc(Nc2cc3nc4ccccc4n(-c4ccc(F)cc4)c-3c/c2=N\\C2CCOCC2)cn1", "note": "[TBI-911, 5-(4-Fluorophenyl)-3-(4-tetrahydropyranyl)imino-2-(6-acetamino-3-pyridyl)amino-3,5-dihydrophenazine]", "MIC": 0.36}
{"smiles": "Cc1ncccc1Nc1cc2nc3ccccc3n(-c3ccc(C(F)(F)F)cc3)c-2c/c1=N\\C1CC1", "note": "[TBI-729]", "MIC": 0.186}
{"smiles": "CC(C)/N=c1\\cc2n(-c3ccccc3C(F)(F)F)c3ccccc3nc-2cc1Nc1cccnc1", "note": "[TBI-720, 5-(2-Trifluoromethylphenyl)-3-(1-methylethyl)imino-2-(3-pyridyl)amino-3,5-dihydrophenazine]", "MIC": 0.214}
{"smiles": "Cc1ccc(Nc2cc3nc4cc(F)ccc4n(-c4ccc(Cl)cc4)c-3c/c2=N\\C(C)C)cn1", "note": "[TBI-943, 8-Fluoro-5-(4-chlorophenyl)-3-(1-methylethyl)imino-2-(6-methyl-3-pyridyl)amino-3,5-dihydrophenazine]", "MIC": 0.06}
{"smiles": "Cc1ccc(Nc2cc3nc4ccccc4n(-c4ccc(Br)cc4)c-3c/c2=N\\C2CCC2)cn1", "note": "[TBI-501, 5-(4-Bromophenyl)-3-cyclobutylimino-2-(6-methyl-3-pyridyl)amino-3,5-dihydrophenazine]", "MIC": 0.09}
{"smiles": "COc1ncccc1Nc1cc2nc3cc(F)ccc3n(-c3ccc(Cl)c(Cl)c3)c-2c/c1=N\\C(C)C", "note": "[TBI-874, 8-Fluoro-5-(3,4-dichlorophenyl)-3-(1-methylethyl)imino-2-(2-methoxy-3-pyridyl)amino-3,5-dihydrophenazine]", "MIC": 0.129}
{"smiles": "O[C@H]1CC[C@H](/N=c2\\cc3n(-c4ccc(F)cc4)c4ccccc4nc-3cc2Nc2cccnc2)CC1", "note": "[TBI-921, 5-(4-Fluorophenyl)-3-(1′,4′-trans-4-hydroxycyclohexyl)imino-2-(3-pyridyl)amino-3,5-dihydrophenazine]", "MIC": 0.434}
{"smiles": "Cc1ccc(Nc2cc3nc4ccccc4n(-c4ccc(Br)cc4)c-3c/c2=N\\C2CCOCC2)cn1", "note": "[TBI-504, 5-(4-Bromophenyl)-3-(4-tetrahydropyranyl)imino-2-(6-methyl-3-pyridyl)amino-3,5-dihydrophenazine]", "MIC": 0.044}
{"smiles": "Cc1ccc(Nc2cc3nc4ccccc4n(-c4ccccc4)c-3c/c2=N\\C2CCCCC2)cn1", "note": "[TBI-080, 5-Phenyl-3-cyclohexylimino-2-(6-methyl-3-pyridyl)amino-3,5-dihydrophenazine]", "MIC": 0.243}
{"smiles": "COc1ncccc1Nc1cc2nc3ccccc3n(-c3ccc(C(F)(F)F)cc3)c-2c/c1=N\\C1CCC(O)CC1", "note": "(centres unmarked) [TBI-719, 5-(4-Trifluoromethylphenyl)-3-(4-hydroxycyclohexyl)imino-2-(2-methoxy-3-pyridyl)amino-3,5-dihydrophenazine]", "MIC": 0.204}
{"smiles": "COc1ncccc1Nc1cc2nc3ccccc3n(-c3ccc(Cl)cc3Cl)c-2c/c1=N\\C1CCOCC1", "note": "[TBI-947, 5-(2,4-Dichlorophenyl)-3-(4-tetrahydropyranyl)imino-2-(2-methoxy-3-pyridyl)amino-3,5-dihydrophenazine]", "MIC": 0.06}
{"smiles": "Cc1ccc(Nc2cc3nc4ccccc4n(-c4ccccc4)c-3c/c2=N\\C2CCC(O)CC2)cn1", "note": "(centres unmarked) [TBI-086]", "MIC": 0.5}
{"smiles": "COc1ncccc1Nc1cc2nc3cc(F)ccc3n(-c3ccc(Cl)c(Cl)c3)c-2c/c1=N\\C1CC1", "note": "[TBI-875, 8-Fluoro-5-(3,4-dichlorophenyl)-3-cyclopropylimino-2-(2-methoxy-3-pyridyl)amino-3,5-dihydrophenazine]", "MIC": 0.047}
{"smiles": "Cc1ccc(-n2c3c/c(=N\\C4CCC4)c(Nc4cccnc4)cc-3nc3ccccc32)cc1", "note": "[TBI-345, 5-(4-Methylphenyl)-3-cyclobutylimino-2-(3-pyridyl)amino-3,5-dihydrophenazine]", "MIC": 0.221}
{"smiles": "Cc1ncccc1Nc1cc2nc3ccccc3n(-c3ccc(Br)cc3)c-2c/c1=N\\C(C)C", "note": "[TBI-507, 5-(4-Bromophenyl)-3-(1-methylethyl)imino-2-(2-methyl-3-pyridyl)amino-3,5-dihydrophenazine]", "MIC": 0.062}
{"system": "Mycobacterium tuberculosis H37Rv strains", "test": "In vitro assay for antimicrobial susceptibility (microplate Alamar blue MIC)", "assay_type": "cell-based", "settings": "in vitro, Mycobacterium tuberculosis H37Rv strains", "units": {"MIC (μg/mL) against H37Rv": "µg/mL"}}
{"smiles": "COc1ncccc1Nc1cc2nc3ccc(F)cc3n(-c3ccc(Cl)cc3)c-2c/c1=N\\C(C)C", "note": "[TBI-926, 7-Fluoro-5-(4-chlorophenyl)-3-(1-methylethyl)imino-2-(2-methoxy-3-pyridyl)amino-3,5-dihydrophenazine]", "MIC (μg/mL) against H37Rv": 0.103}
